Laboratory results reported in PMC9226124, “Macrocycle-stabilization of its interaction with 14-3-3 increases plasma membrane localization and activity of CFTR” (Nature Communications, 2022).
“And” between values parts separate entries of the source, which are not always exact repeats. Equal values may be shown once.

Experiments:
Format in all cases: binding
[1] = molecular target: T1, FITC-labeled CFTRpS753pS768 peptide (no 14-3-3) (Homo sapiens, UniProt P13569); assay: Dose-response FP control assay in the absence of 14-3-3; settings: No 14-3-3
T1 construct: made in house; host or cells: synthetic peptide
Outline: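 Control run without 14-3-3: FITC-CFTR pS753/pS768 peptide (100 nM or 10 nM) with compound titrated in twofold dilutions in 10 mM HEPES pH 7.4, 150 mM NaCl, 0.1% Tween20, 1 mg/mL BSA. Fluorescence polarization read at ex 485/em 535 nm, background subtracted, n = 3. Curves fitted by four-parameter log(agonist) vs. response.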

[2] = molecular target: T2, 14-3-3β/CFTRpS753pS768 complex (Homo sapiens, UniProt P13569+P31946); assay: FP assay, 14-3-3β titration at constant compound concentration (apparent KD)
T2 construct: His6 (cleaved yes); made in house; peptide synthetic
Description: FC-A (100 µM) was added as a positive control and DMSO as the negative control. […] Background polarization was subtracted from all values, n = 3 technical replicates. […] Source data are provided as a Source Data file. […]
The FITC-labeled peptides were dissolved in FP buffer (10 mM HEPES pH 7.4, 150 mM NaCl, 0.1% Tween20, 1 mg/mL BSA) to a final concentration of 100 nM or 10 nM. […] The dilution series were made in 384 Corning Black Round Bottom well plates and their polarization was measured with a Tecan Infinite F500 plate reader (ex. = 485 nm, em. = 535 nm). The method of fitting of the curves was: “log(agonist) vs. response – Variable slope (four parameters)” from GraphPad Prism. The equation is Y = Bottom + (Top-Bottom)/(1 + 10^((LogEC50-X)*HillSlope)).
from the hit validation library.
f the compound, 100 µM FC-A, or both compound and FC-A, 100 µM each. Background polarization was subtracted f
rom all values, n=3 technical replicates.
Source data are provided as a Source Data file.

[3] = molecular target: T2, 14-3-3β/CFTRpS753pS768 complex; assay: Dose-response fluorescence polarization (FP) assay, compound titration; settings: for FP signal: With 14-3-3
Outline: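 Compounds were titrated in two-fold dilutions against 10 μM 14-3-3β and FITC-CFTR pS753pS768 peptide (100 nM or 10 nM). Buffer: 10 mM HEPES pH 7.4, 150 mM NaCl, 0.1% Tween20, 1 mg/mL BSA. Polarization was read at ex 485/em 535 nm, and EC50 was derived from a four-parameter variable-slope fit.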

T1 sequence (P13569 747-774 limits assumed): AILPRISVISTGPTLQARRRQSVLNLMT
T2 sequence (P31946 whole entry): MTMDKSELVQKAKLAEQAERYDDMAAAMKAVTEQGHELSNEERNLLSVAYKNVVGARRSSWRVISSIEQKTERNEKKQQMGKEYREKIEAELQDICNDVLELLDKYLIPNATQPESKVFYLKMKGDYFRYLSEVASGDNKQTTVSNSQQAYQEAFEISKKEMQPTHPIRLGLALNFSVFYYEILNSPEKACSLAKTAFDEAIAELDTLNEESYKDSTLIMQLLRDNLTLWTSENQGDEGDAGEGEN

Structure (SMILES): N=C(N)NCCCC1NC(=O)C(CCCCN)NCc2ccccc2Sc2ccccc2CNC(=O)C(Cc2ccc(O)cc2)NC1=O (stereo not shown) [CY001951]
- FP signal ([1]; compound 476.8 pM): 3
- FP signal ([1]; compound 953.7 pM): 3
- FP signal ([1]; compound 1.90735e-9 M): 4
- FP signal ([1]; compound 3.8147e-9 M): 4
- FP signal ([1]; compound 7.6294e-9 M): 3
- FP signal ([1]; compound 1.52588e-8 M): 5
- FP signal ([1]; compound 3.05176e-8 M): 4
- FP signal ([1]; compound 6.10352e-8 M): 5
- FP signal ([1]; compound 1.2207e-7 M): 4
- FP signal ([1]; compound 2.44141e-7 M): 4
- FP signal ([1]; compound 4.88281e-7 M): 5
- FP signal ([1]; compound 9.76563e-7 M): 6
- FP signal ([1]; compound 1.95313e-6 M): 6
- FP signal ([1]; compound 3.90625e-6 M): 6
- FP signal ([1]; compound 7.8125e-6 M): 7
- FP signal ([1]; compound 1.5625e-5 M): 9
- FP signal ([1]; compound 3.125e-5 M): 16
- FP signal ([1]; compound 6.25e-5 M): 33
- FP signal ([1]; compound 0.000125 M): 73
- FP signal ([1]; compound 0.00025 M): 143
- FP signal ([1]; compound 0.0005 M): 201
- FP signal ([1]; compound 0.001 M): 252
- Fluorescence polarization signal, 14-3-3β titration ([2]; CY compound (100 μM), 14-3-3β concentration 119.2 pM): -2.333
- Fluorescence polarization signal, 14-3-3β titration ([2]; CY compound (100 μM), 14-3-3β concentration 2.44141e-7 M): 10.6667 and 8.667
- Fluorescence polarization signal, 14-3-3β titration ([2]; CY compound (100 μM), 14-3-3β concentration 4.88281e-7 M): 15.6667 and 13.6667
- Fluorescence polarization signal, 14-3-3β titration ([2]; CY compound (100 μM), 14-3-3β concentration 9.76563e-7 M): 27.6667 and 26.6667 and 29.6667
- Fluorescence polarization signal, 14-3-3β titration ([2]; CY compound (100 μM), 14-3-3β concentration 1.95313e-6 M): 40.6667 and 36.6667
- Fluorescence polarization signal, 14-3-3β titration ([2]; CY compound (100 μM), 14-3-3β concentration 3.90625e-6 M): 51.6667 and 49.6667 and 46.6667
- Fluorescence polarization signal, 14-3-3β titration ([2]; CY compound (100 μM), 14-3-3β concentration 7.8125e-6 M): 63.6667 and 58.6667 and 54.6667
- Fluorescence polarization signal, 14-3-3β titration ([2]; CY compound (100 μM), 14-3-3β concentration 1.5625e-5 M): 72.6667 and 68.6667 and 66.6667
- Fluorescence polarization signal, 14-3-3β titration ([2]; CY compound (100 μM), 14-3-3β concentration 3.125e-5 M): 82.6667 and 80.6667
- Fluorescence polarization signal, 14-3-3β titration ([2]; CY compound (100 μM), 14-3-3β concentration 6.25e-5 M): 93.6667 and 92.6667 and 96.6667
- Fluorescence polarization signal, 14-3-3β titration ([2]; CY compound (100 μM), 14-3-3β concentration 0.000125 M): 115.667 and 110.667 and 114.667
- Fluorescence polarization signal, 14-3-3β titration ([2]; CY compound (100 μM), 14-3-3β concentration 0.00025 M): 126.667 and 124.667 and 128.667
- Fluorescence polarization signal, 14-3-3β titration ([2]; CY compound (100 μM), 14-3-3β concentration 0.0005 M): 148.667 and 147.667
- Fluorescence polarization signal, 14-3-3β titration ([2]; FC-A + CY compound, 14-3-3β concentration 1.52588e-8 M): 4.333 and 2.333 and 3.333
- Fluorescence polarization signal, 14-3-3β titration ([2]; FC-A + CY compound, 14-3-3β concentration 6.10352e-8 M): 10.3333 and 8.333
- Fluorescence polarization signal, 14-3-3β titration ([2]; FC-A + CY compound, 14-3-3β concentration 1.2207e-7 M): 16.3333 and 18.3333 and 15.3333
- Fluorescence polarization signal, 14-3-3β titration ([2]; FC-A + CY compound, 14-3-3β concentration 2.44141e-7 M): 30.3333 and 31.3333 and 29.3333
- Fluorescence polarization signal, 14-3-3β titration ([2]; FC-A + CY compound, 14-3-3β concentration 4.88281e-7 M): 47.3333 and 45.3333 and 44.3333
- Fluorescence polarization signal, 14-3-3β titration ([2]; FC-A + CY compound, 14-3-3β concentration 9.76563e-7 M): 71.3333 and 70.3333 and 66.3333
- Fluorescence polarization signal, 14-3-3β titration ([2]; FC-A + CY compound, 14-3-3β concentration 1.95313e-6 M): 93.3333 and 85.3333
- Fluorescence polarization signal, 14-3-3β titration ([2]; FC-A + CY compound, 14-3-3β concentration 3.90625e-6 M): 110.333 and 108.333 and 107.333
- Fluorescence polarization signal, 14-3-3β titration ([2]; FC-A + CY compound, 14-3-3β concentration 7.8125e-6 M): 119.333 and 118.333 and 122.333
- Fluorescence polarization signal, 14-3-3β titration ([2]; FC-A + CY compound, 14-3-3β concentration 1.5625e-5 M): 129.333 and 131.333 and 128.333
- Fluorescence polarization signal, 14-3-3β titration ([2]; FC-A + CY compound, 14-3-3β concentration 3.125e-5 M): 139.333 and 142.333 and 140.333
- Fluorescence polarization signal, 14-3-3β titration ([2]; FC-A + CY compound, 14-3-3β concentration 6.25e-5 M): 148.333 and 150.333
- Fluorescence polarization signal, 14-3-3β titration ([2]; FC-A + CY compound, 14-3-3β concentration 0.000125 M): 156.333 and 152.333
- Fluorescence polarization signal, 14-3-3β titration ([2]; FC-A + CY compound, 14-3-3β concentration 0.00025 M): 161.333 and 163.333 and 160.333
- Fluorescence polarization signal, 14-3-3β titration ([2]; FC-A + CY compound, 14-3-3β concentration 0.0005 M): 171.333 and 173.333
- EC50 ([3]; 14-3-3β 10 μM, labeled CFTRpS753pS768 100 nM, read-out: EC50): 267 µM
- FP signal ([3]; compound 476.8 pM): 3
- FP signal ([3]; compound 953.7 pM): 3
- FP signal ([3]; compound 1.90735e-9 M): 4
- FP signal ([3]; compound 3.8147e-9 M): 4
- FP signal ([3]; compound 7.6294e-9 M): 3
- FP signal ([3]; compound 1.52588e-8 M): 5
- FP signal ([3]; compound 3.05176e-8 M): 4
- FP signal ([3]; compound 6.10352e-8 M): 5
- FP signal ([3]; compound 1.2207e-7 M): 4
- FP signal ([3]; compound 2.44141e-7 M): 4
- FP signal ([3]; compound 4.88281e-7 M): 5
- FP signal ([3]; compound 9.76563e-7 M): 6
- FP signal ([3]; compound 1.95313e-6 M): 6
- FP signal ([3]; compound 3.90625e-6 M): 6
- FP signal ([3]; compound 7.8125e-6 M): 7
- FP signal ([3]; compound 1.5625e-5 M): 9
- FP signal ([3]; compound 3.125e-5 M): 16
- FP signal ([3]; compound 6.25e-5 M): 33
- FP signal ([3]; compound 0.000125 M): 73
- FP signal ([3]; compound 0.00025 M): 143
- FP signal ([3]; compound 0.0005 M): 201
- FP signal ([3]; compound 0.001 M): 252
